Test results as given in patent US11421026B2, “Antibodies that bind human cannabinoid 1 (CB1) receptor” (BIRD ROCK BIO, Inc., priority 2015, dated 2022).

Tests used:
Daudi cells [1] = test: ADCC assay; assay type: cell-based
Method: For ADCC assay, Daudi target cell concentration was adjusted to 12.5×10^4 cells/mL with ADCC medium. 80 μL of cell suspension (1×10^4 viable cells) was added to each well of a round-bottom 96-well plate. Twenty μL of antibody, serially diluted in ADCC medium, was dispensed to each well in triplicate. […] The plate was incubated at 22-25° C. for 30 minutes. PBMC concentration was adjusted with ADCC medium so that by adding […] of PBMC cells to the target cells, the Effector: Target cell ratio were 25:1 and 50:1, respectively. The plate was centrifuged at 250×g for 4 minutes and then incubated at 37° C. 45 minutes prior to harvesting the supernatant, 20 μL of lysis solution from the CytoTox 96 kit (Promega) was added to maximum lysis control wells. After a 5 hour incubation, the plate was centrifuged at 250×g for 4 minutes. 50 μL of supernatant from each well was transfer to a clean flat-bottom 96 well assay plate. 50 μL of substrate from CytoTox 96 kit (Promega) was added to each well and mixed for 30 seconds. The plate was incubated at room temperature for 30 minutes before 50 μL of stop solution was added to each well and mixed for 30 seconds. The absorbance was read at 490 nm. For data analysis: the % lysis is calculated using GraphPad Prism 5.0 to generate the IC50, as follows: […]

Daudi cells [2] = test: CDC assay; assay type: cell-based; settings: 10% complement
Method: For CDC assay Daudi target cells were harvested and cell concentration was adjusted to 80×10^4 cells/mL with cell culture medium. To a flat-bottom 96-well white plate, 25 μL/well of cells was added. Then, 12.5 μL/well of P1C4, Rituximab, Anti-HEL-hIgG1, and Anti-HEL-hIgG2, serially diluted in ADCC medium, were added to each well in duplicate. […] The plates were incubated in the hood for 15 minutes. Human complement, diluted with ADCC medium, was added to the plates containing cells at 12.5 μL/well to reach a final concentration of 10%. For the maximum lysis wells, 5 μL of lysis solution was added. The final volume of all the wells was adjusted to 50 μL with ADCC medium. The plates were incubated at 37° C. for 2 hours before 50 μL/well of CTG solution was added to the cells. The plates were shaken on a microplate shaker for 2 minutes at a speed of 200 and then incubated at room temperature for 10 minutes. The luminescence signal was red with Envision. For data analysis, % cytotoxicity and IC50 was calculated using GraphPad Prism 5.0 as follows: […]

Rituximab: positive control antibody in ADCC and CDC assays
ADCC IC50 (Daudi cells [1]; 25:1 E/T ratio): 0.92 ng/mL
ADCC IC50 (Daudi cells [1]; 50:1 E/T ratio): 1.19 ng/mL
CDC IC50 (Daudi cells [2]): 399 ng/mL
